Laboratory results reported in paper PMC12833730, “Discovery of a First‐in‐Class Covalent Allosteric SHP1 Inhibitor with Immunotherapeutic Activity” (Angewandte Chemie (International Ed. in English), 2025).
Entries after “also recorded” stand apart in the source; their conditions may differ.

Experiments:
IL-2 in Jurkat T cells = assay: IL-2 mRNA / production; format: cell-based; conditions: dose response
Description: Supernatants from lysed cells were reduced, treated with iodoacetamide to cap thiol residues, and digested by trypsin for bottom‐up proteomics analysis. […] LCK is the direct substrate of SHP1 and ERK1/2, and PLCγ is the downstream effector protein of LCK‐mediated TCR signaling. […] Statistical analyses were performed with Graphpad Prism software 10.4.2 through the one‐way ANOVA test using Turkey post‐hoc comparison. ****p < 0.0001 was considered significant.
To further confirm M029 cellular target engagement, we investigated the effect of M029 on T cell function. SHP1 plays a negative role in T cells, and deletion of SHP1 in T cells lowers the activation threshold and enhances antitumor immunity.^[ [30], [31], [32], [33] ^] Mechanistically, SHP1 attenuates T cell receptor (TCR) signaling via dephosphorylation of the lymphocyte‐specific protein tyrosine kinase LCK.^[ [31], [84], [85], [86] ^] T cell activation leads to increased expression and secretion of interleukin 2 (IL‐2)^[ [87] ^] while the removal of SHP1 in T cells enhances IL‐2 production, cell proliferation, and cytolysis capacity.^[ [30], [32] ^] Accordingly, we sought to assess the impact of targeting SHP1 with M029 on TCR‐LCK signaling and T cell activation. […] M029 also dose‐dependently promoted IL‐2 production (Figure 4c). […] These findings corroborate that the observed increase in LCK phosphorylation and its downstream signaling indeed resulted from SHP1 inhibition by M029.

SHP1 = target: T1, SHP1 (Homo sapiens, UniProt P29350); assay: Thermal shift assay; format: binding; conditions: vs DMSO control
T1 construct: SHP1, residues 245-543; made in house; host or cells: E. coli BL21(DE3)
Text: Building on the results from the SAR “by‐catalog” study, the following medicinal chemistry effort was prioritized on a systematic survey of the central phenyl scaffold, the sulfonamide linker, and the distal aryl moiety with the goal of a multiparameter optimization of potency and selectivity for SHP1 inhibition as well as drug‐like properties such as aqueous solubility and cell permeability. Additionally, given the crucial requirement for targeted covalent inhibitors to maintain tempered reactivity that enables selective target engagement and reduces cross‐reactivity to by‐standing nucleophiles in the cellular milieu,^[ [74], [75] ^] the medicinal chemistry campaign also sought to lower SHP1 covalent inhibitor reactivity with GSH and cytotoxicity. Careful assessment and evaluation of the SAR and other desirable drug‐like attributes of all synthesized molecules led to the identification of M029 (Figure 2a and Figure S2D, manuscript in preparation). […] To determine the selectivity of M029 for SHP1, we measured the IC50 value for M029‐mediated inhibition of a number of PTPs after a 60‐min preincubation. […]
The mixtures were centrifuged to remove the unfolded SHP1 proteins, and the supernatants were spiked with a control protein CDC14A, followed by loading into SDS‐PAGE gels to quantify the relative SHP1 level.

[1] = system: MC38 tumor immune infiltrates; assay: Flow cytometry of MC38 tumor immune infiltrates; format: in vivo, C57BL/6 mice; conditions: MC38 tumors
Description: Figure 5 M029 inhibits syngeneic MC38 tumor growth by promoting infiltration and activation of both T cells and NK cells in the tumor microenvironment. […] This T cell activation was further supported by i) the increased effector CD8^+ population in the tumor microenvironment. […] Statistical analyses were performed with Graphpad Prism software 10.4.2 through the student t test or the one‐way ANOVA test using Turkey post‐hoc comparison. *p < 0.05, **p < 0.01, ***p < 0.001, and ****p < 0.0001 were considered significant. Figures are plotted as average ± standard error of the mean (SEM).
To elucidate the mechanism by which M029 elicits its antitumor activity, we analyzed the immune cell population within the tumor samples. […] This observation is in line with earlier reports that SHP1 activity contributes to LAIR1‐mediated T cell exhaustion.^[ [91] ^]
For immune cell profiling in the tumor microenvironment, tumor samples were first reduced to single-cell suspensions by compressing the tumors through a 70 µm filter (Falcon, #352350) into cold 1× PBS supplemented with 5 mM EDTA using the plunger of a syringe (HSW, #4010-200V0). Samples were strained through a second filter and then re-suspended in cold blocking buffer made of 5% BSA, 0.5 mM EDTA, and a 1:1000 dilution of CD16/32. Samples were then incubated with following fluorophore-conjugated antibodies. CD4-488 (Biolegend #100423), CD8a-PE (Biolegend #100708), CD45-PeCy7 (Biolegend #103114), CD25-BV605 (Biolegend #102035), CD44-647 (Biolegend #103039), CD19-488 (Biolegend #115524), NK1.1-647 (Biolegend #108719), CD3-PeCy5 (Biolegend #100273), CD8-BV711 (Biolegend #100747), CD4-PeCy5 (Biolegend #100409), CD69-FITC (Biolegend #104505), FoxP3-488 (Biolegend #126405), Perforin-APC (Biolegend #154303), CD62L-BV605 (Biolegend #104437), TIM3-PerCP/Cy5.5 (Biolegend #134011), PD1-647 (Biolegend #109118), CD11b-BV711 (Biolegend #101241), CD206-FITC (Biolegend #141704), F4/80-647 (Biolegend #123122), CD86-PE (Biolegend #159203), CD11c-BV421 (Biolegend #117329), Ly6G-488 (Biolegend #127625), CD11b-APC (Biolegend #101211), Ly6C-PE (Biolegend #128007), F4/80-BV711 (Biolegend #123147), IL2-BV421 (Biolegend #503825), IFNγ-BV605 (Biolegend #505839), TNFα-APC (Biolegend #506307). The following antibodies were used for depletion studies: anti-CD8α (BioXCell #BE0061) and anti-NK1.1 (BioXCell #BE0036). Samples were incubated with antibodies at a 1:600 dilution in blocking buffer on ice for two hours. After staining, samples were washed and re-suspended in 5% BSA, 0.5 mM EDTA solution, then added to a 5 mL polystyrene tube for analysis (Falcon, #352235). Sample data was acquired using a BD LSRFortessa Cell Analyzer, and results were analyzed using FlowJo.

T1 sequence (P29350 245-543): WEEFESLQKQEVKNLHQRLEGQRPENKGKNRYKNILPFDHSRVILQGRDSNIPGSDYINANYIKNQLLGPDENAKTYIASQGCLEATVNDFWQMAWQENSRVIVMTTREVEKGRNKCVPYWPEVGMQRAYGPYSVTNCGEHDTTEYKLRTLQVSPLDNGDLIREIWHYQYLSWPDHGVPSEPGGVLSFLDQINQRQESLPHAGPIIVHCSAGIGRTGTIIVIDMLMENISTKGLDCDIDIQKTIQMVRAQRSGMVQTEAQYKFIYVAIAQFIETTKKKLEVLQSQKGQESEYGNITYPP

## N#Cc1ccsc1NS(=O)(=O)c1ccc(NC(=O)CCl)cc1 [M029, 2-Chloro-N-(4-(N-(3-cyanothiophen-2-yl)sulfamoyl)phenyl)acetamide]
IL-2 in Jurkat T cells
  IL-2 production / relative IL-2 mRNA level: increased; also recorded: promoted
SHP1
  decrease in SHP1 protein melting temperature: 1.8 °C
[1]
  late exhaustion T cells (PD1+TIM3+): a decline
  pre-exhausted PD1+TIM3− T cells: increased
[1]; 25 mg/kg
  activation marker CD25 on infiltrating CD8+ T cells: higher expression
  activation of tumor-infiltrating NK cells (CD69): significantly more activated
  cytotoxicity marker perforin on infiltrating CD8+ T cells: higher expression
  effector markers CD44+CD62L− on infiltrating CD8+ T cells: higher expression
  infiltration of cytotoxic CD8+ T cells: increased infiltration
[1]; 25 mg/kg, vs control
  increase of CD3+ T cells in tumor: ~33%
  increase of NK1.1+ NK cells in tumor: ~100%
